Patent US20190233884A1 (University of Southern California, priority 2016, published 2019)
Counter-ions that a name gives are not always drawn. Like-named read-outs stand apart in the source and are kept apart here.

Columns and labels:
[1] = clinical; details: human, in vivo
Source text: Neither TPI renal clearance (CLren) nor or tubular secretory Clearance (CLsec) were associated with SNPs in MATE1 (rs2289669 or rs2252281) when tested individually (FIG. 8). […] (FIGS. 8-10). TPI is strongly associated with PFS and OS with regard to renal clearance difference by OCT2 and MATE1 gene-gene interaction.

[2] = cited from earlier work

Row | SMILES | Clrenal [1] | CL renal ([1]; Clrenal) | CLrenal and CLsec ([2]; healthy volunteers, OCT2 rs316019 heterozygote or homozygote along with MATE1 rs225281 heterozygote) | Clrenal ([2]; stratum 3 (MATE1 WT and OCT2 HM) compared with stratum 1 (MATE1 WT and OCT2 WT))
1 | N=C1CCCN1Cc1[nH]c(=O)[nH]c(=O)c1Cl [TPI, tipiracil hydrochloride] | 29.6 L/h | 555 mL/min | – | –
2 | CN(C)C(=N)N=C(N)N [metformin, N,N-Dimethylimidodicarbonimidic diamide] | – | – | significantly lower | relatively higher
